Source: patent US10501479B2, “Benzenesulfonyl-asymmetric ureas and medical uses thereof” (HELSINN HEALTHCARE SA, priority 2016, dated 2019)
Read-outs that look alike come from different tables or passages of the source.

Legend:
Type in all cases: cell-based
[1] = target: T1, GHSR-1a (HEK293/GHSR1a cell line) (Homo sapiens, UniProt Q92847); assay: Ghrelin antagonist potency (IC50) with calcium FLIPR assay, ghrelin 10 nM
T1 construct: expressed in transfected cells; host or cells: HEK293/GHSR1a cell line
T1 sequence (Q92847 whole entry): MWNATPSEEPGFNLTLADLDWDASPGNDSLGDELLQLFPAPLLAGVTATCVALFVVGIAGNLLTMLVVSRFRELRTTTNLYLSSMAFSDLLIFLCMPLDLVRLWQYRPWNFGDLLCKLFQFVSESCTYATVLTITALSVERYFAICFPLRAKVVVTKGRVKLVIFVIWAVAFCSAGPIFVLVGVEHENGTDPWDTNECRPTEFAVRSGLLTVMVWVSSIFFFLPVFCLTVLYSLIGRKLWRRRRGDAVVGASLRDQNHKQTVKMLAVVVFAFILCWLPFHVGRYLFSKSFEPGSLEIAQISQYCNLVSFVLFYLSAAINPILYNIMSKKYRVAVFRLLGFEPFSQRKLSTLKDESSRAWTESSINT
Method in brief: (§1)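 HEK293/GHSR1a cells, seeded 24 hr ahead and loaded with calcium dye 30-60 min, were read by FLIPR fluorescence for 2 min after addition at t=20 sec. Agonism: compound alone, EC50 from dose-response. Antagonism: compound plus 10 nM ghrelin, IC50 from reduction of ghrelin response.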

[2] = target: T1, GHSR-1a (HEK293/GHSR1a cell line); assay: Ghrelin agonist potency (EC50) with calcium FLIPR assay
Method in brief: as §1

[3] = target: T2, recombinant human ghrelin receptor (HEK293/GRLN) (Homo sapiens, UniProt Q92847); assay: Ghrelin inverse agonist potency (EC50) with IP-1 (IP-One HTRF) assay; settings: IP-1 assay
T2 construct: expressed in transfected cells
T2 sequence (Q92847 whole entry): as above
Method in brief: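 HEK293/GRLN cells were seeded 18-22 hours before the test, then exposed to compound in stimulation buffer for 1 hour at 37° C, 5% CO2. IP-1 was detected by IP-One HTRF (IP1-d2 plus Tb-cryptate, 1 hour RT), reading 620 and 665 nm; the inverse agonist EC50 was derived from this.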

[4] = HEK293/GHSR1a, ghrelin 10 nM, read-out: Activity IC50 (ghrelin antagonist potency)
[5] = HEK293/GHSR1a, read-out: Activity EC50/EMax: EC50 (ghrelin agonist potency)
[6] = HEK293/GRLN, read-out: Activity EC50 (ghrelin inverse agonist potency)
[7] = ghrelin antagonist potency, read-out: Activity IC50
[8] = ghrelin agonist potency, read-out: Activity EC50/EMax
[9] = ghrelin inverse agonist potency, read-out: Activity EC50

Structure (SMILES)	IC50 [1, 4] [nM]	EC50 [2, 5] [nM]	EC50 [3, 6] [nM]	IC50 [1, 7] [nM]	EC50 [2, 8] [nM]	EC50 [3, 9] [nM]
CN1Cc2ccc(CS(=O)(=O)c3ccc(NC(=O)N[C@H]4CCCc5ccccc54)cc3)cc2C1 [H1335, (S)-1-(4-(((2-methylisoindolin-5-yl)methyl)sulfonyl)phenyl)-3-(1,2,3,4-tetrahydronaphthalen-1-yl)urea]	133	> 30000	69.9	–	–	–
CC(NC(=O)Nc1ccc(S(=O)(=O)Cc2ccc3c(c2)C(=O)NC3)cc1)c1ccccc1 (stereo not drawn) [H1291, 1-(4-(((3-oxoisoindolin-5-yl)methyl)sulfonyl)phenyl)-3-(1-phenylethyl)urea]	1200	> 30000	468	–	–	–
CC(NC(=O)Nc1ccc(S(=O)(=O)Cc2cc3c(s2)CNC3)cc1)c1ccccc1 (stereo not drawn) [H1320, 1-(4-(((5,6-dihydro-4H-thieno[2,3-c]pyrrol-2-yl)methyl)sulfonyl)phenyl)-3-(1-phenylethyl)urea]	58.4	> 30000	43.3	–	–	–
COc1cc(S(=O)(=O)Cc2ccc(CO)cc2)ccc1NC(=O)NC(C)c1c(F)cccc1F (stereo not drawn) [H1432, 1-(1-(2,6-difluorophenyl)ethyl)-3-(4-((4-(hydroxymethyl)benzyl)sulfonyl)-2-methoxyphenyl)urea]	5500	> 30000	367	–	–	–
Cc1ccc(C(C)NC(=O)Nc2ccc(S(=O)(=O)Cc3ccc4c(c3)CNC4)cc2)cc1C(F)F (stereo not drawn) [H1521, 1-(1-(3-(difluoromethyl)-4-methylphenyl)ethyl)-3-(4-((isoindolin-5-ylmethyl)sulfonyl)phenyl)urea]	–	–	–	52.3	> 30000	17.8
O=C(Nc1ccc(S(=O)(=O)Cc2ccc3c(c2)CNC3)cc1)NC1COc2ccccc21 (stereo not drawn) [H1330, 1-(2,3-dihydrobenzofuran-3-yl)-3-(4-((isoindolin-5-ylmethyl)sulfonyl)phenyl)urea]	147	> 30000	142	–	–	–
C[C@@H](NC(=O)Nc1ccc(S(=O)(=O)Cc2ccc3c(c2)CN(C)C3(C)C)cc1)c1ccccc1 [H1357, (R)-1-(1-phenylethyl)-3-(4-(((1,1,2-trimethylisoindolin-5-yl)methyl)sulfonyl)phenyl)urea]	57	> 30000	36	–	–	–
CC(NC(=O)Nc1ccc(C(=O)Nc2ccc3c(c2)CNC3)cc1)c1ccccc1 (stereo not drawn) [H1479, N-(isoindolin-5-yl)-4-(3-(1-phenylethyl)ureido)benzamide]	–	–	–	2500	> 30000	1950
CC(NC(=O)Nc1ccc(S(=O)(=O)Cc2ccc3c(c2)CNC3)cc1-c1cccnc1)c1ccccc1 (stereo not drawn) [H1533, 1-(4-((isoindolin-5-ylmethyl)sulfonyl)-2-(pyridin-3-yl)phenyl)-3-(1-phenylethyl)urea]	–	–	–	1700	> 30000	76.2
COc1cc(S(=O)(=O)Cc2ccc3c(c2)CCN(C)C3)ccc1NC(=O)NC(C)c1c(F)cccc1F (stereo not drawn) [H1436, 1-(1-(2,6-difluorophenyl)ethyl)-3-(2-methoxy-4-(((2-methyl-1,2,3,4-tetrahydroisoquinolin-6-yl)methyl)sulfonyl)phenyl)urea]	19.5	> 30000	4.3	–	–	–
COc1ccc(C(C)NC(=O)Nc2ccc3c(c2)C=C(c2ccc4c(c2)CN(Cc2ccccc2)C4)S3(=O)=O)cc1 (stereo not drawn) [H1296, 1-(2-(2-benzylisoindolin-5-yl)-1,1-dioxidobenzo[b]thiophen-5-yl)-3-(1-(4-methoxyphenyl)ethyl)urea]	> 30000	13200	4920	–	–	–
COc1cc(S(=O)(=O)Cc2ccc3c(c2)CCNC3)ccc1NC(=O)N(C)C(C)c1ccccc1 (stereo not drawn) [H1413, 3-(2-methoxy-4-(((1,2,3,4-tetrahydroisoquinolin-6-yl)methyl)sulfonyl)phenyl)-1-methyl-1-(1-phenylethyl)urea]	681	> 30000	225	–	–	–
CC(NC(=O)Nc1ccc(S(=O)(=O)Cc2ccc3c(c2F)CCN(C)C3)cc1)c1cccc(Cl)c1Cl (stereo not drawn) [H1367, 1-(1-(2,3-dichlorophenyl)ethyl)-3-(4-(((5-fluoro-2-methyl-1,2,3,4-tetrahydroisoquinolin-6-yl)methyl)sulfonyl)phenyl)urea]	21.2	> 30000	3.3	–	–	–
COc1cccc(OC)c1C(C)NC(=O)Nc1ccc(S(=O)(=O)Cc2ccc3c(c2)CN(C)C3)cc1 (stereo not drawn) [H1451, 1-(1-(2,6-dimethoxyphenyl)ethyl)-3-(4-(((2-methylisoindolin-5-yl)methyl)sulfonyl)phenyl)urea]	68.5	> 30000	33.3	–	–	–
COc1cc(S(=O)(=O)Cc2ccc(CO)cc2)ccc1NC(=O)NC(C)c1cccc(Cl)c1Cl (stereo not drawn) [H1434, 1-(1-(2,3-dichlorophenyl)ethyl)-3-(4-((4-(hydroxymethyl)benzyl)sulfonyl)-2-methoxyphenyl)urea]	857	> 30000	61.2	–	–	–
CC(NC(=O)Nc1ccc(S(=O)(=O)Cc2ccc3c(c2)C(O)CC3)cc1)c1ccccc1 (stereo not drawn) [H1293, 1-(4-(((3-hydroxy-2,3-dihydro-1H-inden-5-yl)methyl)sulfonyl)phenyl)-3-(1-phenylethyl)urea]	5680	> 30000	930	–	–	–
COc1c(CS(=O)(=O)c2ccc(NC(=O)NC(C)c3cccc(Cl)c3Cl)cc2)ccc2c1CCN(C)C2 (stereo not drawn) [H1369, 1-(1-(2,3-dichlorophenyl)ethyl)-3-(4-(((5-methoxy-2-methyl-1,2,3,4-tetrahydroisoquinolin-6-yl)methyl)sulfonyl)phenyl)urea]	3.66	> 30000	1.1	–	–	–
COc1cc(S(=O)(=O)Cc2ccc3c(c2)CN(C)C3)ccc1NC(=O)NC(C)c1ccccc1OC (stereo not drawn) [H1438, 1-(2-methoxy-4-(((2-methylisoindolin-5-yl)methyl)sulfonyl)phenyl)-3-(1-(2-methoxyphenyl)ethyl)urea]	12.6	> 30000	2.76	–	–	–
CC(NC(=O)Nc1ccc(S(=O)(=O)Cc2ccc3c(c2)CN(C)C3)cc1CO)c1ccccc1 (stereo not drawn) [H1468, 1-(2-(hydroxymethyl)-4-(((2-methylisoindolin-5-yl)methyl)sulfonyl)phenyl)-3-(1-phenylethyl)urea]	–	–	–	80.6	> 30000	18.2
CCN(CC)Cc1ccc(CS(=O)(=O)c2ccc(NC(=O)NC(C)c3ccccc3)cc2)cc1 (stereo not drawn) [H1304, 1-(4-((4-((diethylamino)methyl)benzyl)sulfonyl)phenyl)-3-(1-phenylethyl)urea]	145	> 30000	182	–	–	–
CC(=O)N1CC(NC(=O)Nc2ccc(S(=O)(=O)Cc3ccc4c(c3)CNC4)cc2)c2ccccc21 (stereo not drawn) [H1353, 1-(1-acetylindolin-3-yl)-3-(4-((isoindolin-5-ylmethyl)sulfonyl)phenyl)urea]	5100	> 30000	8230	–	–	–
CC(NC(=O)Nc1ccc(S(=O)(=O)CC2=CC3CCC(C2)N3)cc1)c1cccc(Cl)c1Cl (stereo not drawn) [H1488, 1-(4-(((8-azabicyclo[3.2.1]oct-2-en-3-yl)methyl)sulfonyl)phenyl)-3-(1-(2,3-dichlorophenyl)ethyl)urea]	–	–	–	2050	> 30000	668
CC(NC(=O)Nc1ccc(S(=O)(=O)Cc2cc(Cl)c3c(c2)CNC3)cc1)c1ccccc1 (stereo not drawn) [H1405, 1-(4-(((7-chloroisoindolin-5-yl)methyl)sulfonyl)phenyl)-3-(1-phenylethyl)urea]	1860	> 30000	90	–	–	–
